Experimental data as given in ChEMBL document CHEMBL1909046, “DrugMatrix in vitro pharmacology data”.

Target: T1, Alpha-1B adrenergic receptor (Rattus norvegicus, UniProt P15823)
T1 sequence (P15823 whole entry): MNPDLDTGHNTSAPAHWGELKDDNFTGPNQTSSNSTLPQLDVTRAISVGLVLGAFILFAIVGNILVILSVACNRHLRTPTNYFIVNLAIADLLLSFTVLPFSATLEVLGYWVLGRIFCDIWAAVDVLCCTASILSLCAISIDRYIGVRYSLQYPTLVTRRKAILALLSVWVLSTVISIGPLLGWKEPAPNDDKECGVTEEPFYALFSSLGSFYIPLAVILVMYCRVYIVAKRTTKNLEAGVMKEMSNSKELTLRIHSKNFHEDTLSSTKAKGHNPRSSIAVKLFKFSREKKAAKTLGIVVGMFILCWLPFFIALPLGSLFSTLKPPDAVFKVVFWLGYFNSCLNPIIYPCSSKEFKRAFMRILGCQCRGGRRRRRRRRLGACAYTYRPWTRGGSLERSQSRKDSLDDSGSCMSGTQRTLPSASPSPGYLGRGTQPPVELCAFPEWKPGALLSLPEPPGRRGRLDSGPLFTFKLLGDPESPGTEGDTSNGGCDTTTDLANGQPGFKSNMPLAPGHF
Assay: DRUGMATRIX: Alpha-1B adrenergic receptor radioligand binding (ligand: prazosin)
Assay type: cell membranes, Wistar, Liver, Membrane
Details: Not Active = under 50% inhibition at 10 µM
For `O=c1[nH]c(=O)n(C2CCCO2)cc1F` (stereo unspecified) [TEGAFUR], the IC50 was “Not Active”. In the case of `CC(=N)S` [THIOACETAMIDE], the IC50 is reported as “Not Active”. For `Cc1ccc(C(=O)c2ccc(CC(=O)O)n2C)cc1` [TOLMETIN], the IC50 was “Not Active”. With `CC(=O)OCC(COC(C)=O)OC(C)=O` [TRIACETIN] the IC50 was “Not Active”. In the case of `CN1CCN(CCCN2c3ccccc3Sc3ccc(C(F)(F)F)cc32)CC1` [TRIFLUOPERAZINE], the IC50 is reported as “Not Active”. In the case of TRANSPLATIN, the IC50 is reported as “Not Active” and the Ki is reported as “Not Active”.

Test system: not listed separately
Assay: DRUGMATRIX: beta-Lactamase enzyme inhibition (substrate: Nitrocefin)
Set-up: species or system Bacillus cereus
Details: Not Active = under 50% inhibition at 10 µM
For `O=c1[nH]c(=O)n(C2CCCO2)cc1F` (stereo unspecified) [TEGAFUR], the IC50 was “Not Active” and the Ki was “Not Active”. With `CC(=N)S` [THIOACETAMIDE] the IC50 was “Not Active” and the Ki was “Not Active”. In the case of `Cc1ccc(C(=O)c2ccc(CC(=O)O)n2C)cc1` [TOLMETIN], the IC50 is reported as “Not Active” and the Ki is reported as “Not Active”. In the case of `CC(=O)OCC(COC(C)=O)OC(C)=O` [TRIACETIN], the IC50 is reported as “Not Active” and the Ki is reported as “Not Active”. For `CN1CCN(CCCN2c3ccccc3Sc3ccc(C(F)(F)F)cc32)CC1` [TRIFLUOPERAZINE], the IC50 was “Not Active” and the Ki was “Not Active”. For TRANSPLATIN, the IC50 was “Not Active” and the Ki was “Not Active”.

Test system: not listed separately
Assay: DRUGMATRIX: Calcium Channel Type L, Dihydropyridine radioligand binding (ligand: [3H] Nitrendipine)
Assay type: cell membranes, Rattus norvegicus, Wistar, Cerebral cortex, Membrane
Details: Not Active = under 50% inhibition at 10 µM
For `O=c1[nH]c(=O)n(C2CCCO2)cc1F` (stereo unspecified) [TEGAFUR], the IC50 was “Not Active” and the Ki was “Not Active”. For `CC(=N)S` [THIOACETAMIDE], the IC50 was “Not Active” and the Ki was “Not Active”. With `Cc1ccc(C(=O)c2ccc(CC(=O)O)n2C)cc1` [TOLMETIN] the IC50 was “Not Active” and the Ki was “Not Active”. With `CC(=O)OCC(COC(C)=O)OC(C)=O` [TRIACETIN] the IC50 was “Not Active” and the Ki was “Not Active”. For `CN1CCN(CCCN2c3ccccc3Sc3ccc(C(F)(F)F)cc32)CC1` [TRIFLUOPERAZINE], the IC50 was “Not Active” and the Ki was “Not Active”. For TRANSPLATIN, the IC50 was “Not Active” and the Ki was “Not Active”.

Test system: not listed separately
Assay: DRUGMATRIX: Sigma2 radioligand binding (ligand: [3H] Ifenprodil)
Assay type: cell membranes, Rattus norvegicus, Wistar, Brain, Membrane
Details: Not Active = under 50% inhibition at 10 µM
With `O=c1[nH]c(=O)n(C2CCCO2)cc1F` (stereo unspecified) [TEGAFUR] the IC50 was “Not Active” and the Ki was “Not Active”. For `CC(=N)S` [THIOACETAMIDE], the IC50 was “Not Active” and the Ki was “Not Active”. For `Cc1ccc(C(=O)c2ccc(CC(=O)O)n2C)cc1` [TOLMETIN], the IC50 was “Not Active” and the Ki was “Not Active”. For `CC(=O)OCC(COC(C)=O)OC(C)=O` [TRIACETIN], the IC50 was “Not Active” and the Ki was “Not Active”. In the case of `CN1CCN(CCCN2c3ccccc3Sc3ccc(C(F)(F)F)cc32)CC1` [TRIFLUOPERAZINE], the IC50 is reported as “Not Active” and the Ki is reported as “Not Active”. For TRANSPLATIN, the IC50 was “Not Active” and the Ki was “Not Active”.

Test system: not listed separately
Assay: DRUGMATRIX: Phosphodiesterase PDE4 enzyme inhibition (substrate: [3H]cAMP + cAMP)
Details: u-937; Not Active = under 50% inhibition at 10 µM
In the case of `O=c1[nH]c(=O)n(C2CCCO2)cc1F` (stereo unspecified) [TEGAFUR], the IC50 is reported as “Not Active” and the Ki is reported as “Not Active”. With `CC(=N)S` [THIOACETAMIDE] the IC50 was “Not Active” and the Ki was “Not Active”. For `Cc1ccc(C(=O)c2ccc(CC(=O)O)n2C)cc1` [TOLMETIN], the IC50 was “Not Active” and the Ki was “Not Active”. With `CC(=O)OCC(COC(C)=O)OC(C)=O` [TRIACETIN] the IC50 was “Not Active” and the Ki was “Not Active”. In the case of `CN1CCN(CCCN2c3ccccc3Sc3ccc(C(F)(F)F)cc32)CC1` [TRIFLUOPERAZINE], the IC50 is reported as “Not Active” and the Ki is reported as “Not Active”. In the case of TRANSPLATIN, the IC50 is reported as “Not Active” and the Ki is reported as “Not Active”.

Test system: not listed separately
Assay: DRUGMATRIX: Platelet-Derived Growth Factor (PDGF) radioligand binding (ligand: [125I] PDGF)
Assay type: cell-based
Details: nih3t3; Not Active = under 50% inhibition at 10 µM
With `O=c1[nH]c(=O)n(C2CCCO2)cc1F` (stereo unspecified) [TEGAFUR] the IC50 was “Not Active” and the Ki was “Not Active”. With `CC(=N)S` [THIOACETAMIDE] the IC50 was “Not Active” and the Ki was “Not Active”. With `Cc1ccc(C(=O)c2ccc(CC(=O)O)n2C)cc1` [TOLMETIN] the IC50 was “Not Active” and the Ki was “Not Active”. For `CC(=O)OCC(COC(C)=O)OC(C)=O` [TRIACETIN], the IC50 was “Not Active” and the Ki was “Not Active”. In the case of `CN1CCN(CCCN2c3ccccc3Sc3ccc(C(F)(F)F)cc32)CC1` [TRIFLUOPERAZINE], the IC50 is reported as “Not Active” and the Ki is reported as “Not Active”. For TRANSPLATIN, the IC50 was “Not Active” and the Ki was “Not Active”.

Test system: not listed separately
Assay: DRUGMATRIX: Purinergic P2X radioligand binding (ligand: [3H] alpha, beta-Methylene-ATP)
Assay type: cell membranes, Oryctolagus cuniculus, New Zealand albino, Urinary bladder, Membrane
Details: Not Active = under 50% inhibition at 10 µM
With `O=c1[nH]c(=O)n(C2CCCO2)cc1F` (stereo unspecified) [TEGAFUR] the IC50 was “Not Active” and the Ki was “Not Active”. For `CC(=N)S` [THIOACETAMIDE], the IC50 was “Not Active” and the Ki was “Not Active”. With `Cc1ccc(C(=O)c2ccc(CC(=O)O)n2C)cc1` [TOLMETIN] the IC50 was “Not Active” and the Ki was “Not Active”. In the case of `CC(=O)OCC(COC(C)=O)OC(C)=O` [TRIACETIN], the IC50 is reported as “Not Active” and the Ki is reported as “Not Active”. With `CN1CCN(CCCN2c3ccccc3Sc3ccc(C(F)(F)F)cc32)CC1` [TRIFLUOPERAZINE] the IC50 was “Not Active” and the Ki was “Not Active”. For TRANSPLATIN, the IC50 was “Not Active” and the Ki was “Not Active”.

Target: Cytochrome P450 2C19 (Homo sapiens, UniProt P33261); note: in other assays of this panel Not Active means under 50% inhibition at 10 µM
Sequence (P33261 whole entry): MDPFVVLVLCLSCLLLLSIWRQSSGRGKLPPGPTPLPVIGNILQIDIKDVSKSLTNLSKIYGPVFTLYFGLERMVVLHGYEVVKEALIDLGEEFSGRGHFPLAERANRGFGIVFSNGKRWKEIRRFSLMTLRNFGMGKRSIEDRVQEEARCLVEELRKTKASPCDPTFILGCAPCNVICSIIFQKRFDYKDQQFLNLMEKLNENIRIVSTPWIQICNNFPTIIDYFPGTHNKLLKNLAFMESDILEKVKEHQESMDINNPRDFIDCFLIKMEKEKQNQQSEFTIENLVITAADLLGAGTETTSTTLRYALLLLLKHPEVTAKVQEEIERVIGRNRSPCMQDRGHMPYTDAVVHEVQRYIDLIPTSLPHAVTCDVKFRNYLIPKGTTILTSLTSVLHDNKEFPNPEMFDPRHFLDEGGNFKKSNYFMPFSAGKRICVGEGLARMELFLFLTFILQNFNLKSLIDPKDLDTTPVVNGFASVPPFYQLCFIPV
Details: bti-tn-5b1-4
In the case of `CN1[C@@H]2CC[C@H]1C[C@@H](OC(c1ccccc1)c1ccccc1)C2` [BENZTROPINE], the IC50 is reported as “Not Active” and the Ki is reported as “Not Active”. In the case of `CN1CCN(C2=Nc3cc(Cl)ccc3Nc3ccccc32)CC1` [CLOZAPINE], the IC50 is reported as “Not Active” and the Ki is reported as “Not Active”. In the case of `CC(C)NC[C@@H](O)COc1cccc2ccccc12` [DEXPROPRANOLOL], the IC50 is reported as “Not Active” and the Ki is reported as “Not Active”. For `CC(C)NC[C@H](O)COc1cccc2ccccc12` [LEVOPROPRANOLOL], the IC50 was “Not Active” and the Ki was “Not Active”. With `CN(C)C(=O)C(CCN1CCC(O)(c2ccc(Cl)cc2)CC1)(c1ccccc1)c1ccccc1` [LOPERAMIDE] the IC50 was “Not Active” and the Ki was “Not Active”. With `OCCOCCN1CCN(C2=Nc3ccccc3Sc3ccccc32)CC1` [QUETIAPINE] the IC50 was “Not Active” and the Ki was “Not Active”. With `O=c1[nH]c(=O)n(C2CCCO2)cc1F` (stereo unspecified) [TEGAFUR] the IC50 was “Not Active” and the Ki was “Not Active”. For `CC(=N)S` [THIOACETAMIDE], the IC50 was “Not Active” and the Ki was “Not Active”. With `Cc1ccc(C(=O)c2ccc(CC(=O)O)n2C)cc1` [TOLMETIN] the IC50 was “Not Active” and the Ki was “Not Active”. In the case of `CC(=O)OCC(COC(C)=O)OC(C)=O` [TRIACETIN], the IC50 is reported as “Not Active” and the Ki is reported as “Not Active”. For TRANSPLATIN, the IC50 was “Not Active” and the Ki was “Not Active”.
